Four compounds from publication PMC2995015 (Biochemistry, 2010) can be followed below.

What all share (assay type): cell-based
In assay [1] the target is T1, PMAT mutant Y85W (Homo sapiens, UniProt Q7RTT9, Y85W).
T1 sequence (Q7RTT9 1-530 Y85W): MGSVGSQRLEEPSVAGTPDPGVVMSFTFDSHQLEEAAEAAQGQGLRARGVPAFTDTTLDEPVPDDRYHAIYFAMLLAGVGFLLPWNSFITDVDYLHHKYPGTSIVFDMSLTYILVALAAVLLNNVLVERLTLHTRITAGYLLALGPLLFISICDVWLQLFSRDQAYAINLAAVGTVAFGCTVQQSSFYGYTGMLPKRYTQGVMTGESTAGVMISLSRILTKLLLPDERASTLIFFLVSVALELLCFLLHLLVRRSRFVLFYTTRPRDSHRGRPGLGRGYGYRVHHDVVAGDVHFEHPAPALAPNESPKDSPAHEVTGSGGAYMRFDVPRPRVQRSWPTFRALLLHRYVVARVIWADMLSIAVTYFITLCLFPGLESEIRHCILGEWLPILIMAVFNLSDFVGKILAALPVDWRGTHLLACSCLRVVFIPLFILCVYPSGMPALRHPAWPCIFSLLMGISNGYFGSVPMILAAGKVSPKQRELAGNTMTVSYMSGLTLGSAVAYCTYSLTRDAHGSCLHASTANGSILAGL
Put plainly: Concentration-dependent transport kinetics in stably transfected MDCK cells. The note with it: for Km / Vmax: Y85W, MDCK cells, 1 min, 37°C.

The target in assay [2] is T2, PMAT mutant Y112W (Homo sapiens, UniProt Q7RTT9, Y112W).
T2 sequence (Q7RTT9 1-530 Y112W): T1 sequence (Q7RTT9 1-530 Y85W) with W85Y, Y112W
Put plainly: Single-concentration 3H-substrate uptake in stably transfected MDCK cells. The note with it: MPP+ 1 μM, 5-HT 10 μM, dopamine 10 μM, 4 min, 37°C.

Assay [3] concerns the target T2, PMAT mutant Y112W. As to the kind of experiment: Concentration-dependent transport kinetics in stably transfected MDCK cells. The note with it: for Km / Vmax: Y112W, MDCK cells, 1 min, 37°C.
The next assay concerns the target T3, PMAT wild type (Homo sapiens, UniProt Q7RTT9).
T3 sequence (Q7RTT9 1-530): T1 sequence (Q7RTT9 1-530 Y85W) with W85Y
The assay is described as above. The note with it: 1 min, 37°C.

Assay [4] addresses T1, PMAT mutant Y85W. Put plainly: Single-concentration 3H-substrate uptake in stably transfected MDCK cells. The note with it: MPP+ 1 μM, 5-HT 10 μM, dopamine 10 μM, 4 min, 37°C.
In a further assay the target is T4, PMAT mutant Y112S (Homo sapiens, UniProt Q7RTT9, Y112S).
T4 sequence (Q7RTT9 1-530 Y112S): T1 sequence (Q7RTT9 1-530 Y85W) with W85Y, Y112S
Put plainly: Uptake of uridine in the presence of NBMPR in stably transfected MDCK cells. The note with it: 0.5 μM NBMPR, vs vector-transfected cells.

Assay [5] has as its target T1, PMAT mutant Y85W. The description is as above. The note with it: 0.5 μM NBMPR, vs vector-transfected cells.
The target in assay [6] is T1, PMAT mutant Y85W. As to the kind of experiment: Uridine inhibition of organic cation transport in stably transfected MDCK cells. The note with it: uridine 1 mM; data not shown.
A further assay concerns the target T5, PMAT mutant Y112A (Homo sapiens, UniProt Q7RTT9, Y112A).
T5 sequence (Q7RTT9 1-530 Y112A): T1 sequence (Q7RTT9 1-530 Y85W) with W85Y, Y112A
As to the kind of experiment: Uptake of uridine in the presence of NBMPR in stably transfected MDCK cells. Conditions: 0.5 μM NBMPR, vs vector-transfected cells.

The target of the next assay is T6, WT PMAT (Homo sapiens, UniProt Q7RTT9).
T6 sequence (Q7RTT9 1-530): T1 sequence (Q7RTT9 1-530 Y85W) with W85Y
The description is as above. Conditions: 0.5 μM NBMPR, vs vector-transfected cells.

Where a chain is given by its changes, count along the chain named.

Turning to `NCCc1ccc(O)c(O)c1` [Dopamine, dopamine], the figures for the Km at PMAT mutant Y85W [1], at PMAT mutant Y112W [3] and on PMAT wild type were 243 ± 30.4 µM, 88 ± 6.8 µM and 244 ± 16.2 µM, respectively. Further, the results for the Vmax at PMAT mutant Y85W [1], on PMAT mutant Y112W [3] and on PMAT wild type were 3.87 ± 0.14 nmol/mg protein/min, 1.03 ± 0.09 nmol/mg protein/min and 4.12 ± 0.35 nmol/mg protein/min, respectively. The “activity retained compared to cells expressing WT PMAT” value on PMAT mutant Y112W [2] is 50–60%. On PMAT mutant Y112W [3] (Y112W vs WT PMAT), the “transport efficiencies, % of the WT PMAT” value is given as 60–70%.

`C[n+]1ccc(-c2ccccc2)cc1` [MPP^+, 1-methyl-4-phenylpyridinium]: on PMAT mutant Y85W [1] (Y85W vs WT PMAT), the “increase in maximal velocity (Vmax)” value amounted to 1.6 fold and the “increase in transport efficiency (Vmax/Km)” value was “about 2 fold”. At PMAT mutant Y85W [1], the Michaelis-Menten constant (Km) was determined as 31.1 ± 6.9 µM and the Vmax is given as 0.94 ± 0.10 nmol/mg protein/min. Further, the “transport activity compared to WT PMAT” value on PMAT mutant Y85W [4] is listed as “significantly higher transport activity”. Also, the “activity retained compared to cells expressing WT PMAT” value at PMAT mutant Y112W [2] is “less than 20%”. The “reduction in Vmax” value on PMAT mutant Y112W [3] (Y112W vs WT PMAT) is 2.6 fold. At PMAT mutant Y112W [3], the Km is 147 ± 36.3 µM and the Vmax came to 0.23 ± 0.02 nmol/mg protein/min. At PMAT wild type, the Km worked out at 42.2 ± 5 µM and the Vmax was determined as 0.60 ± 0.04 nmol/mg protein/min.

As to `NCCc1c[nH]c2ccc(O)cc12` [Serotonin, serotonin], the Km came out at 308 ± 50.8 µM on PMAT mutant Y85W [1], 104 ± 13.2 µM on PMAT mutant Y112W [3] and 168 ± 18.9 µM at PMAT wild type. Further, on PMAT mutant Y112W [3], the Vmax was 1.04 ± 0.13 nmol/mg protein/min.

Consider `O=c1ccn([C@@H]2O[C@H](CO)[C@@H](O)[C@H]2O)c(=O)[nH]1` [uridine], for which the “transport activity for uridine” value on PMAT mutant Y112S, on PMAT mutant Y85W [5], on PMAT mutant Y112A and at WT PMAT was “no statistically significant transport activity” each time. Also, on PMAT mutant Y85W [6], the “inhibitory effect on Y85W-mediated organic cations transport” value is on record as “no significant inhibitory effect”.
